In PubChem BioAssay (NCI):
Where “and” joins values, the source holds several entries; their conditions need not be identical. Equal values may be shown once.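 Five concentrations, 48 hours, 96-well plates. Abbreviation: GI50, concentration required for 50% inhibition of growth. TGI marks complete inhibition of growth.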

Tests used:
Assay in all cases: NCI anticancer screen, dose series, 48 h
T-47D breast = test system: T-47D breast
RXF 393 renal = test system: RXF 393 renal
OVCAR-5 ovarian = test system: OVCAR-5 ovarian
U251 CNS = test system: U251 CNS
SR leukemia = test system: SR leukemia
786-0 renal = test system: 786-0 renal
A549 NSCLC = test system: A549 NSCLC
SNB-19 CNS = test system: SNB-19 CNS
MDA-MB-231 breast = test system: MDA-MB-231 breast
EKVX NSCLC = test system: EKVX NSCLC

## O=C(Nc1cccc(-n2cc(-c3ccncc3)c(-c3ccc(Cl)c(O)c3)n2)c1)Nc1ccc(Cl)c(Cl)c1
T-47D breast
  GI50: 1550 nM
  TGI: 17900 nM
RXF 393 renal
  GI50: 1000 nM
  TGI: 6400 nM
OVCAR-5 ovarian
  GI50: 2400 nM
  TGI: > 32500 nM
U251 CNS
  GI50: 1510 nM
  TGI: 9680 nM
SR leukemia
  GI50: 1140 nM
  TGI: 15000 nM
786-0 renal
  GI50: 7220 nM
  TGI: > 32500 nM
A549 NSCLC
  GI50: 1010 nM
  TGI: > 32500 nM
SNB-19 CNS
  GI50: 1460 nM
  TGI: > 32500 nM
MDA-MB-231 breast
  GI50: 1180 nM
  TGI: 8330 nM

## c1ccc(CC(Nc2cccnc2)c2ccccc2)cc1 (stereo not drawn)
T-47D breast
  TGI: > 100000 nM
RXF 393 renal
  TGI: 51200 nM
EKVX NSCLC
  TGI: 98300 nM
OVCAR-5 ovarian
  TGI: 98800 nM
U251 CNS
  TGI: 42000 nM
SR leukemia
  TGI: 50900 nM
786-0 renal
  TGI: 54400 nM
A549 NSCLC
  TGI: > 100000 nM
SNB-19 CNS
  TGI: > 100000 nM
MDA-MB-231 breast
  TGI: 48700 nM

## CC1[C@@H]2CC=C3[C@H]4CCC5Cc6nc7c(nc6C[C@@]5(C)C4CC(=O)[C@]32CO[C@]12OC(C)(C)CC2O)CC1CC[C@@H]2C3=C[C@H]4O[C@@]5(O[C@@](C)(CO)C[C@@H]5O)C(C)[C@@]4(O)[C@]3(C)[C@@H](O)CC2[C@]1(C)C7 (stereo partly drawn)
T-47D breast
  GI50: 246 nM
RXF 393 renal
  GI50: 0.365 nM
  TGI: 0.428 nM and 4.14 nM
EKVX NSCLC
  GI50: 5.39 nM and 7.63 nM
  TGI: 141 nM and 227 nM
OVCAR-5 ovarian
  GI50: 13 nM and 4.25 nM
  TGI: 139 nM and 23.7 nM
U251 CNS
  GI50: 0.183 nM and 0.365 nM
  TGI: 129 nM and 46.1 nM
SR leukemia
  GI50: 0.181 nM
  TGI: 8.56 nM
786-0 renal
  GI50: 0.168 nM
  TGI: 30.3 nM
A549 NSCLC
  GI50: 0.51 nM and 1.33 nM
  TGI: 164 nM and 470 nM
SNB-19 CNS
  GI50: 4.59 nM and 9.21 nM
  TGI: 537 nM and 443 nM
MDA-MB-231 breast
  GI50: 1.21 nM
  TGI: 284 nM

## Cc1cnc(-c2ccc(-c3ccc(NC(=O)Nc4c(F)cc(F)cc4F)cc3F)c3c2C(=O)NC3)[nH]1
T-47D breast
  GI50: 2980 nM and 12600 nM
  TGI: 20500 nM and 47500 nM
RXF 393 renal
  GI50: 1150 nM and 1320 nM
  TGI: 3600 nM and 5580 nM
EKVX NSCLC
  GI50: 2330 nM and 2960 nM
  TGI: > 100000 nM
OVCAR-5 ovarian
  GI50: 1610 nM and 1560 nM
  TGI: 13200 nM and 12600 nM
U251 CNS
  GI50: 433 nM and 926 nM
  TGI: 1850 nM and 2510 nM
SR leukemia
  GI50: 29.4 nM and < 10 nM
786-0 renal
  GI50: 1250 nM
  TGI: 2860 nM
A549 NSCLC
  GI50: 1290 nM and 1110 nM
  TGI: 8230 nM and 10800 nM
SNB-19 CNS
  GI50: 2000 nM and 2510 nM
  TGI: 14400 nM and 15500 nM
MDA-MB-231 breast
  GI50: 1590 nM and 2510 nM
  TGI: 8160 nM and 11300 nM

## CCN(CC)CC(O)c1cc(-c2ccc(Cl)cc2)nc2c(C)c(Cl)ccc12 (stereo not drawn)
T-47D breast
  GI50: 1590 nM
  TGI: 3120 nM
RXF 393 renal
  GI50: 1710 nM
  TGI: 3140 nM
EKVX NSCLC
  GI50: 1460 nM
  TGI: 2900 nM
OVCAR-5 ovarian
  GI50: 1740 nM
  TGI: 3370 nM
U251 CNS
  GI50: 1770 nM
  TGI: 3330 nM
786-0 renal
  GI50: 1690 nM
  TGI: 3180 nM
SNB-19 CNS
  GI50: 1860 nM
  TGI: 3440 nM
MDA-MB-231 breast
  GI50: 1470 nM
  TGI: 3030 nM

## CC(C)C1=CC2=C(C(=O)C1=O)C13CCCC(C)(C)C1CC2OC3=O (stereo not drawn)
T-47D breast
  TGI: 48400 nM
EKVX NSCLC
  TGI: 31700 nM
OVCAR-5 ovarian
  TGI: 59700 nM
U251 CNS
  TGI: 49700 nM
786-0 renal
  TGI: 31900 nM
A549 NSCLC
  TGI: > 100000 nM
SNB-19 CNS
  TGI: > 100000 nM
MDA-MB-231 breast
  TGI: 42600 nM

## O=C1c2ccc3c4c(ccc(c24)C(=O)N1CCNCc1ccccc1)C(=O)N(CCNCc1ccccc1)C3=O
T-47D breast
  GI50: 1640 nM
  TGI: 3570 nM
RXF 393 renal
  GI50: 1410 nM
  TGI: 4210 nM
EKVX NSCLC
  GI50: 2030 nM
  TGI: 6020 nM
OVCAR-5 ovarian
  GI50: 2020 nM
  TGI: 4610 nM
U251 CNS
  GI50: 2020 nM
  TGI: 5420 nM
786-0 renal
  GI50: 1890 nM
  TGI: 3590 nM
A549 NSCLC
  GI50: 1870 nM
  TGI: 8770 nM
SNB-19 CNS
  GI50: 2670 nM
  TGI: 9280 nM
MDA-MB-231 breast
  GI50: 2310 nM
  TGI: 6610 nM
